Data from ChEMBL document CHEMBL3046948, “Synthesis and SAR investigation of natural phenylpropene-derived methoxylated cinnamaldehydes and their novel Schiff bases as potent antimicrobial and antioxidant agents” (2013).
≈ marks a conversion by molar mass, not a printed value. Calls of active or inactive are those of the source. The calls are words filed in the database; no cut-off is given here.

Experiments:
Type in all cases: functional
[1] = test system: Aspergillus sydowii; experiment: Antimicrobial activity against Aspergillus sydowii MTCC 4335 assessed as growth inhibition after 5 days by broth microdilution method
[2] = test system: Aspergillus parasiticus; experiment: Antimicrobial activity against Aspergillus parasiticus MTCC 2797 assessed as growth inhibition after 5 days by broth microdilution method
[3] = test system: Aspergillus niger; experiment: Antimicrobial activity against Aspergillus niger MTCC 404 assessed as growth inhibition after 5 days by broth microdilution method
[4] = test system: Pichia kudriavzevii; experiment: Antimicrobial activity against Pichia kudriavzevii MTCC 231 assessed as growth inhibition after 24 hr by broth microdilution method
[5] = test system: Candida albicans; experiment: Antimicrobial activity against Candida albicans MTCC 3017 assessed as growth inhibition after 24 hr by broth microdilution method
[6] = test system: Enterobacter cloacae; experiment: Antimicrobial activity against Enterobacter cloacae MTCC 509 assessed as growth inhibition after 24 hr by broth microdilution method
[7] = test system: Pseudomonas aeruginosa; experiment: Antimicrobial activity against Pseudomonas aeruginosa MTCC 424 assessed as growth inhibition after 24 hr by broth microdilution method
[8] = test system: Klebsiella pneumoniae; experiment: Antimicrobial activity against Klebsiella pneumoniae MTCC 109 assessed as growth inhibition after 24 hr by broth microdilution method
[9] = test system: Escherichia coli; experiment: Antimicrobial activity against Escherichia coli MTCC 43 assessed as growth inhibition after 24 hr by broth microdilution method
[10] = test system: Burkholderia cepacia; experiment: Antimicrobial activity against Burkholderia cepacia MTCC 438 assessed as growth inhibition after 24 hr by broth microdilution method
[11] = test system: Micrococcus luteus; experiment: Antimicrobial activity against Micrococcus luteus MTCC 2470 assessed as growth inhibition after 24 hr by broth microdilution method
[12] = test system: Bacillus subtilis; experiment: Antimicrobial activity against Bacillus subtilis MTCC 121 assessed as growth inhibition after 24 hr by broth microdilution method
[13] = test system: Staphylococcus aureus; experiment: Antimicrobial activity against Staphylococcus aureus MTCC 3160 assessed as growth inhibition after 24 hr by broth microdilution method
[14] = test system: Trichophyton rubrum; experiment: Antimicrobial activity against Trichophyton rubrum MTCC 296 assessed as growth inhibition after 5 days by broth microdilution method

COc1ccc(/C=C/C=O)cc1OC [3,4-DIMETHOXY CINNAMALDEHYDE]
MIC ([1]; MTCC 4335, 120 h): 5200 µM (≈ 1000 µg/mL) | MIC ([2]; MTCC 2797, 120 h): 2600 µM (≈ 500 µg/mL) | MIC ([3]; MTCC 404, 120 h): 5200 µM (≈ 1000 µg/mL) | MIC ([4]; MTCC 231, 24 h): 2600 µM (≈ 500 µg/mL) | MIC ([5]; MTCC 3017, 24 h): 2600 µM (≈ 500 µg/mL) | MIC ([6]; MTCC 509, 24 h): 10400 µM (≈ 2000 µg/mL) | MIC ([7]; MTCC 424, 24 h): 2600 µM (≈ 500 µg/mL) | MIC ([8]; MTCC 109, 24 h): 10400 µM (≈ 2000 µg/mL) | MIC ([9]; MTCC 43, 24 h): 10400 µM (≈ 2000 µg/mL) | MIC ([10]; MTCC 438, 24 h): 5200 µM (≈ 1000 µg/mL) | MIC ([11]; MTCC 2470, 24 h): 2600 µM (≈ 500 µg/mL) | MIC ([12]; MTCC 121, 24 h): 5200 µM (≈ 1000 µg/mL) | MIC ([13]; MTCC 3160, 24 h): 5200 µM (≈ 1000 µg/mL) | MIC ([14]; MTCC 296, 120 h): 2600 µM (≈ 500 µg/mL)

COc1cc(OC)c(OC)cc1/C=C/C=O
MIC ([1]; MTCC 4335, 120 h): 4500 µM (≈ 1000 µg/mL) | MIC [2]: inactive | MIC [3]: inactive | MIC ([4]; MTCC 231, 24 h): 8990 µM (≈ 2000 µg/mL) | MIC ([5]; MTCC 3017, 24 h): 8990 µM (≈ 2000 µg/mL) | MIC [6]: inactive | MIC [7]: inactive | MIC [8]: inactive | MIC [9]: inactive | MIC [10]: inactive | MIC ([11]; MTCC 2470, 24 h): 2250 µM (≈ 500 µg/mL) | MIC [12]: inactive | MIC [13]: inactive | MIC ([14]; MTCC 296, 120 h): 8990 µM (≈ 2000 µg/mL)

O=C(O)/C=C/c1ccccc1 [CINNAMIC ACID]
MIC ([1]; MTCC 4335, 120 h): 1680 µM (≈ 249 µg/mL) | MIC ([2]; MTCC 2797, 120 h): 3370 µM (≈ 499 µg/mL) | MIC ([3]; MTCC 404, 120 h): 1680 µM (≈ 249 µg/mL) | MIC ([4]; MTCC 231, 24 h): 840 µM (≈ 124 µg/mL) | MIC ([5]; MTCC 3017, 24 h): 420 µM (≈ 62.2 µg/mL) | MIC ([6]; MTCC 509, 24 h): 6750 µM (≈ 1000 µg/mL) | MIC ([7]; MTCC 424, 24 h): 13500 µM (≈ 2000 µg/mL) | MIC ([8]; MTCC 109, 24 h): 6750 µM (≈ 1000 µg/mL) | MIC ([9]; MTCC 43, 24 h): 13500 µM (≈ 2000 µg/mL) | MIC ([10]; MTCC 438, 24 h): 6750 µM (≈ 1000 µg/mL) | MIC ([11]; MTCC 2470, 24 h): 6750 µM (≈ 1000 µg/mL) | MIC ([12]; MTCC 121, 24 h): 6750 µM (≈ 1000 µg/mL) | MIC ([13]; MTCC 3160, 24 h): 3370 µM (≈ 499 µg/mL) | MIC ([14]; MTCC 296, 120 h): 420 µM (≈ 62.2 µg/mL)

C/C=C/c1cc(OC)c(OC)cc1OC [TRANS-ASARONE]
MIC ([1]; MTCC 4335, 120 h): 2400 µM (≈ 500 µg/mL) | MIC ([2]; MTCC 2797, 120 h): 1200 µM (≈ 250 µg/mL) | MIC ([3]; MTCC 404, 120 h): 4800 µM (≈ 1000 µg/mL) | MIC ([4]; MTCC 231, 24 h): 1200 µM (≈ 250 µg/mL) | MIC ([5]; MTCC 3017, 24 h): 600 µM (≈ 125 µg/mL) | MIC ([6]; MTCC 509, 24 h): 9600 µM (≈ 2000 µg/mL) | MIC [7]: inactive | MIC [8]: inactive | MIC [9]: inactive | MIC [10]: inactive | MIC [11]: inactive | MIC [12]: inactive | MIC [13]: inactive | MIC ([14]; MTCC 296, 120 h): 600 µM (≈ 125 µg/mL)

NYSTATIN
MIC [1]: 4 µM | MIC [2]: 60 µM | MIC [3]: 30 µM | MIC [4]: 30 µM | MIC [5]: 8 µM | MIC [14]: 8 µM

CC1(C)S[C@@H]2[C@H](NC(=O)[C@H](N)c3ccccc3)C(=O)N2[C@H]1C(=O)O [AMPICILLIN]
MIC ([6]; MTCC 509, 24 h): 5700 µM (≈ 1990 µg/mL) | MIC ([7]; MTCC 424, 24 h): 2800 µM (≈ 978 µg/mL) | MIC ([8]; MTCC 109, 24 h): 5700 µM (≈ 1990 µg/mL) | MIC ([9]; MTCC 43, 24 h): 80 µM (≈ 28 µg/mL) | MIC ([10]; MTCC 438, 24 h): 5700 µM (≈ 1990 µg/mL) | MIC ([11]; MTCC 2470, 24 h): 10 µM (≈ 3.49 µg/mL) | MIC ([12]; MTCC 121, 24 h): 10 µM (≈ 3.49 µg/mL) | MIC ([13]; MTCC 3160, 24 h): 10 µM (≈ 3.49 µg/mL)
